Test results from PubChem BioAssay (NCI).
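Cultured in 96-well plates, cells were exposed to test compound for 48 hours across five concentrations. At the GI50, growth is halved. Definition used: TGI = concentration required for complete inhibition of growth.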

Columns and labels:
Assay in all cases: NCI tumour cell line growth inhibition, 48 h
[1] = test system: HL-60(TB) leukemia
[2] = test system: SW-620 colon
[3] = test system: SR leukemia
[4] = test system: OVCAR-5 ovarian
[5] = test system: NCI-H522 lung
[6] = test system: OVCAR-4 ovarian
[7] = test system: SF-539 CNS
[8] = test system: NCI-H226 lung
[9] = test system: HOP-62 NSCLC
[10] = test system: SF-295 CNS
[11] = test system: LOX IMVI melanoma
[12] = test system: SK-OV-3 ovarian
[13] = test system: TK-10 renal
[14] = test system: OVCAR-8 ovarian
[15] = test system: CAKI-1 renal
[16] = test system: HCT-15 colon
[17] = test system: PC-3 prostate
[18] = test system: MCF7 breast
[19] = test system: IGROV1 ovarian
[20] = test system: UACC-62 melanoma
[21] = test system: SK-MEL-5 melanoma
[22] = test system: EKVX NSCLC
[23] = test system: KM12 colon
[24] = test system: DU-145 prostate
[25] = test system: RPMI-8226 leukemia
[26] = test system: M14 melanoma
[27] = test system: UO-31 renal
[28] = test system: HS 578T breast
[29] = test system: NCI/ADR-RES ovarian
[30] = test system: OVCAR-3 ovarian
[31] = test system: HCC-2998 colon
[32] = test system: UACC-257 melanoma
[33] = test system: MALME-3M melanoma
[34] = test system: COLO 205 colon
[35] = test system: MDA-MB-435
[36] = test system: RXF 393 renal
[37] = test system: 786-0 renal
[38] = test system: CCRF-CEM leukemia
[39] = test system: BT-549 breast
[40] = test system: NCI-H23 lung
[41] = test system: ACHN renal
[42] = test system: A498 renal
[43] = test system: MOLT-4 leukemia
[44] = test system: NCI-H460 lung
[45] = test system: T-47D breast
[46] = test system: U251 CNS
[47] = test system: HT29 colon
[48] = test system: MDA-MB-231 breast
[49] = test system: SK-MEL-28 melanoma
[50] = test system: K-562 leukemia
[51] = test system: HCT-116 colon
[52] = test system: A549 NSCLC
[53] = test system: SNB-19 CNS
[54] = test system: SF-268 CNS
[55] = test system: SN12C renal
[56] = test system: SNB-75 CNS
[57] = test system: SK-MEL-2 melanoma
[58] = test system: HOP-92 NSCLC

## CN(C)c1ccc(Nc2ncnc3ccccc23)cc1
[1]
  GI50: > 100 µM
  TGI: > 100 µM
[2]
  GI50: > 100 µM
  TGI: > 100 µM
[3]
  GI50: 54.3 µM
  TGI: > 100 µM
[4]
  GI50: > 100 µM
  TGI: > 100 µM
[5]
  GI50: > 100 µM
  TGI: > 100 µM
[6]
  GI50: > 100 µM
  TGI: > 100 µM
[7]
  GI50: > 100 µM
  TGI: > 100 µM
[8]
  GI50: > 100 µM
  TGI: > 100 µM
[9]
  GI50: > 100 µM
  TGI: > 100 µM
[10]
  GI50: > 100 µM
  TGI: > 100 µM
[11]
  GI50: > 100 µM
  TGI: > 100 µM
[12]
  GI50: > 100 µM
  TGI: > 100 µM
[13]
  GI50: > 100 µM
  TGI: > 100 µM
[14]
  GI50: > 100 µM
  TGI: > 100 µM
[15]
  GI50: > 100 µM
  TGI: > 100 µM
[16]
  GI50: > 100 µM
  TGI: > 100 µM
[17]
  GI50: > 100 µM
  TGI: > 100 µM
[18]
  GI50: > 100 µM
  TGI: > 100 µM
[19]
  GI50: > 100 µM
  TGI: > 100 µM
[20]
  GI50: > 100 µM
  TGI: > 100 µM
[21]
  GI50: > 100 µM
  TGI: > 100 µM
[22]
  GI50: > 100 µM
  TGI: > 100 µM
[23]
  GI50: > 100 µM
  TGI: > 100 µM
[24]
  GI50: > 100 µM
  TGI: > 100 µM
[25]
  GI50: > 100 µM
  TGI: > 100 µM
[26]
  GI50: > 100 µM
  TGI: > 100 µM
[27]
  GI50: > 100 µM
  TGI: > 100 µM
[28]
  GI50: > 100 µM
  TGI: > 100 µM
[29]
  GI50: > 100 µM
  TGI: > 100 µM
[30]
  GI50: > 100 µM
  TGI: > 100 µM
[31]
  GI50: > 100 µM
  TGI: > 100 µM
[32]
  GI50: > 100 µM
  TGI: > 100 µM
[33]
  GI50: > 100 µM
  TGI: > 100 µM
[34]
  GI50: > 100 µM
  TGI: > 100 µM
[35]
  GI50: > 100 µM
  TGI: > 100 µM
[36]
  GI50: > 100 µM
  TGI: > 100 µM
[37]
  GI50: > 100 µM
  TGI: > 100 µM
[38]
  GI50: > 100 µM
  TGI: > 100 µM
[39]
  GI50: > 100 µM
  TGI: > 100 µM
[40]
  GI50: > 100 µM
  TGI: > 100 µM
[41]
  GI50: > 100 µM
  TGI: > 100 µM
[42]
  GI50: > 100 µM
  TGI: > 100 µM
[43]
  GI50: 18.8 µM
  TGI: > 100 µM
[44]
  GI50: > 100 µM
  TGI: > 100 µM
[45]
  GI50: > 100 µM
  TGI: > 100 µM
[46]
  GI50: > 100 µM
  TGI: > 100 µM
[47]
  GI50: > 100 µM
  TGI: > 100 µM
[48]
  GI50: > 100 µM
  TGI: > 100 µM
[49]
  GI50: > 100 µM
  TGI: > 100 µM
[50]
  GI50: > 100 µM
  TGI: > 100 µM
[51]
  GI50: > 100 µM
  TGI: > 100 µM
[52]
  GI50: > 100 µM
  TGI: > 100 µM
[53]
  GI50: > 100 µM
  TGI: > 100 µM
[54]
  GI50: > 100 µM
  TGI: > 100 µM
[55]
  GI50: > 100 µM
  TGI: > 100 µM
[56]
  GI50: > 100 µM
  TGI: > 100 µM

## COC1CCN(N(C)C)O1 (stereo unspecified)
[1]
  TGI: > 100 µM
[2]
  TGI: > 100 µM
[3]
  TGI: > 100 µM
[4]
  TGI: > 100 µM
[5]
  TGI: > 100 µM
[6]
  TGI: > 100 µM
[8]
  TGI: > 100 µM
[9]
  TGI: > 100 µM
[10]
  TGI: > 100 µM
[11]
  TGI: > 100 µM
[13]
  TGI: > 100 µM
[14]
  TGI: > 100 µM
[15]
  TGI: > 100 µM
[16]
  TGI: > 100 µM
[17]
  TGI: > 100 µM
[18]
  TGI: > 100 µM
[19]
  TGI: > 100 µM
[20]
  TGI: > 100 µM
[21]
  TGI: > 100 µM
[22]
  TGI: > 100 µM
[23]
  TGI: > 100 µM
[24]
  TGI: > 100 µM
[25]
  TGI: > 100 µM
[26]
  TGI: > 100 µM
[27]
  TGI: > 100 µM
[57]
  TGI: > 100 µM
[28]
  TGI: > 100 µM
[29]
  TGI: > 100 µM
[30]
  TGI: > 100 µM
[31]
  TGI: > 100 µM
[32]
  TGI: > 100 µM
[33]
  TGI: > 100 µM
[34]
  TGI: > 100 µM
[35]
  TGI: > 100 µM
[36]
  TGI: > 100 µM
[37]
  TGI: > 100 µM
[38]
  TGI: > 100 µM
[39]
  TGI: > 100 µM
[40]
  TGI: > 100 µM
[41]
  TGI: > 100 µM
[42]
  TGI: > 100 µM
[43]
  TGI: > 100 µM
[44]
  TGI: > 100 µM
[45]
  TGI: > 100 µM
[46]
  TGI: > 100 µM
[47]
  TGI: > 100 µM
[48]
  TGI: > 100 µM
[49]
  TGI: > 100 µM
[50]
  TGI: > 100 µM
[51]
  TGI: > 100 µM
[52]
  TGI: > 100 µM
[53]
  TGI: > 100 µM
[54]
  TGI: > 100 µM
[55]
  TGI: > 100 µM
[56]
  TGI: > 100 µM

## O=C1C(Cl)=C(Nc2cccc(O)c2)C(=O)N1CCc1ccccc1
[2]
  GI50: 30.9 µM
  TGI: 77.5 µM
[3]
  GI50: 4.61 µM
  TGI: 64.3 µM
[4]
  GI50: 20.7 µM
  TGI: 46.8 µM
[5]
  GI50: 13.2 µM
  TGI: 29.2 µM
[6]
  GI50: 20.1 µM
  TGI: 55.3 µM
[8]
  GI50: 22 µM
  TGI: 45.6 µM
[9]
  GI50: 19.2 µM
  TGI: 38.4 µM
[10]
  GI50: 21.8 µM
  TGI: 46.6 µM
[11]
  GI50: 16.9 µM
  TGI: 39.6 µM
[12]
  GI50: 32.1 µM
  TGI: > 100 µM
[13]
  GI50: 23.1 µM
  TGI: 48.4 µM
[14]
  GI50: 21.5 µM
  TGI: 51.1 µM
[15]
  GI50: 22.5 µM
  TGI: 56.3 µM
[16]
  GI50: 22.4 µM
  TGI: 57.8 µM
[17]
  GI50: 22.3 µM
  TGI: 62.7 µM
[18]
  GI50: 14.4 µM
  TGI: 33.6 µM
[19]
  GI50: 15 µM
  TGI: 35.4 µM
[20]
  GI50: 13.9 µM
  TGI: 29.1 µM
[21]
  GI50: 20.2 µM
  TGI: 38 µM
[22]
  GI50: 19.3 µM
  TGI: 40.9 µM
[23]
  GI50: 15.5 µM
  TGI: 34 µM
[24]
  GI50: 15.3 µM
  TGI: 32.5 µM
[25]
  GI50: 5.03 µM
  TGI: 37.6 µM
[26]
  GI50: 17.7 µM
  TGI: 37.9 µM
[27]
  GI50: 16.7 µM
  TGI: 36.8 µM
[57]
  GI50: 14.5 µM
  TGI: 33.7 µM
[28]
  GI50: 17.5 µM
  TGI: 40.5 µM
[29]
  GI50: 20.1 µM
  TGI: 49 µM
[30]
  GI50: 15.4 µM
  TGI: 34.3 µM
[58]
  GI50: 15.9 µM
  TGI: 36.4 µM
[33]
  GI50: 16.2 µM
  TGI: 33 µM
[34]
  GI50: 33.2 µM
  TGI: > 100 µM
[35]
  GI50: 15.7 µM
  TGI: 37.1 µM
[36]
  GI50: 25.9 µM
  TGI: 71.4 µM
[37]
  GI50: 19.2 µM
  TGI: 36.6 µM
[38]
  GI50: 12.6 µM
  TGI: 69.4 µM
[39]
  GI50: 17.9 µM
  TGI: 47.1 µM
[40]
  GI50: 17.7 µM
  TGI: 36.4 µM
[41]
  GI50: 22.9 µM
  TGI: 47.5 µM
[43]
  GI50: 9.4 µM
  TGI: 59 µM
[44]
  GI50: 18 µM
  TGI: 39.8 µM
[45]
  GI50: 40.5 µM
  TGI: > 100 µM
[46]
  GI50: 19.1 µM
  TGI: 42.1 µM
[47]
  GI50: 24.3 µM
  TGI: 82.5 µM
[48]
  GI50: 23.3 µM
  TGI: 44.4 µM
[49]
  GI50: 19.8 µM
  TGI: 40.8 µM
[50]
  GI50: 16.8 µM
  TGI: 63.9 µM
[51]
  GI50: 24.3 µM
  TGI: 73.3 µM
[52]
  GI50: 20.6 µM
  TGI: 46.4 µM
[53]
  GI50: 22.6 µM
  TGI: 49.4 µM
[54]
  GI50: 17 µM
  TGI: 42.2 µM
[55]
  GI50: 16 µM
  TGI: 32.6 µM
